Read-outs that look alike come from different tables or passages of the source.
Columns and labels:
[1] = test system: occult choroidal neovascular lesions; experiment: Verteporfin PDT of occult CNV lesions versus placebo, best corrected visual acuity at 24 months; format: in vivo, human
Experimental: Subjects having, suspected of having, or otherwise afflicted with occult neovascular lesions were evaluated for best corrected visual acuity as outlined in Example 1, and their lesion size determined angiographically as outlined in Example 2. […] The greatest linear dimension of the entire CNV lesion was […], corresponding to 9 Disc Areas. Subjects were evaluated for visual acuity and lesion size about 1 week prior to treatment. Subjects were randomly assigned to a treatment group and a placebo group.
For each subject in the treatment group, a 15 mg-vial of liposomally-formulated verteporfin (Verteporfin for Injection (Visudyne™) was reconstituted with 7 mL of sterile water for injection to provide 7.5 mL containing a final concentration of 2 mg/mL. The volume of reconstituted drug required to achieve a dose of 6 mg/M^2 (based upon the height and weight of the subject, calculated from a nomogram) was withdrawn from the vial and diluted with 5% dextrose for injection to make a total infusion volume of 30 mL. The full infusion volume was administered intravenously over 10 minutes using an appropriate syringe pump and in-line filter. Fifteen minutes after the start of the infusion, light was administered to the lesion from a diode laser through a fiber optic delivered via a slit lamp, and utilizing a suitable lens. A light dose of 50J/cm^2 was applied at a fluency rate of 600 mW/cm^2, 50J/cm^2 (83 second exposure).
Subjects were evaluated by fluorescein angiography approximately every three months, and their best corrected visual acuity was assessed. Subjects were retreated if evidence of CNV leakage was detected by fluorescein angiography.

[2] = test system: CNV lesions classified as predominantly classic or minimally classic; settings: cited from earlier work
[3] = baseline visual acuity <65 letters, lesion size all, 24 months
[4] = baseline visual acuity <65 letters, lesion size ≦4DA, 24 months
[5] = baseline visual acuity <65 letters, lesion size ≧4DA, 24 months
[6] = baseline visual acuity ≧65 letters, lesion size all, 24 months
[7] = baseline visual acuity ≧65 letters, lesion size ≦4DA, 24 months
[8] = baseline visual acuity ≧65 letters, lesion size ≧4DA, 24 months

Substance: verteporfin
- 30 Letter Response Rate (percent of subjects losing less than 30 letters) Difference V-P [1, 3]: 27.5%
- Mean VA Difference [1, 3]: 11.7
- 15 Letter Response Rate (percent of subjects losing less than 15 letters) Difference V-P ([1]; baseline visual acuity <65 letters, lesion size all, 24 months after initial treatment, 6 mg/M^2 i.v., 50 J/cm^2): 33.8%
- 15 Letter Response Rate (percent of subjects losing less than 15 letters) Difference V-P [1, 4]: 43.8%
- 30 Letter Response Rate (percent of subjects losing less than 30 letters) Difference V-P [1, 4]: 19.4%
- Mean VA Difference [1, 4]: 12.3
- 15 Letter Response Rate (percent of subjects losing less than 15 letters) Difference V-P [1, 5]: 21.5%
- 30 Letter Response Rate (percent of subjects losing less than 30 letters) Difference V-P [1, 5]: 30.0%
- Mean VA Difference [1, 5]: 9.4
- 15 Letter Response Rate (percent of subjects losing less than 15 letters) Difference V-P [1, 6]: −3.9%
- 30 Letter Response Rate (percent of subjects losing less than 30 letters) Difference V-P [1, 6]: 8.5%
- Mean VA Difference [1, 6]: 1.5
- 15 Letter Response Rate (percent of subjects losing less than 15 letters) Difference V-P [1, 7]: 12.5%
- 30 Letter Response Rate (percent of subjects losing less than 30 letters) Difference V-P [1, 7]: 26.8%
- Mean VA Difference [1, 7]: 9.3
- 15 Letter Response Rate (percent of subjects losing less than 15 letters) Difference V-P [1, 8]: −24%
- 30 Letter Response Rate (percent of subjects losing less than 30 letters) Difference V-P [1, 8]: −5.3%
- Mean VA Difference [1, 8]: −3.3
- response of subjects having occult lesions to PDT ([1]; study of Example 3, in words): respond to PDT
- treatment benefit with verteporfin PDT ([2]; lesions classified as minimally classic): did not
- treatment benefit with verteporfin PDT ([2]; lesions classified as predominantly classic): large treatment benefit
